Experimental data published in US20060142323A1, “Dual binding site acetylcholinesterase inhibitors for the treatment of alzheimer's disease” (priority 2002, published 2006).
Read-outs that look alike come from different tables or passages of the source.

What was measured:
[1] = biological target: T1, AChE from bovine erythrocytes (Bos taurus, UniProt P23795); test: Acetylcholinesterase (AChE) inhibition (from bovine erythrocytes), Ellman method at 30° C., Digiscan 340T; type: biochemical
T1 construct: 0.02 units AChE (Sigma Chemical Co. from bovine erythrocytes); purchased Sigma Chemical Co; host or cells: bovine erythrocytes
T1 sequence (P23795 31-614 isoform P23795-2 limits assumed): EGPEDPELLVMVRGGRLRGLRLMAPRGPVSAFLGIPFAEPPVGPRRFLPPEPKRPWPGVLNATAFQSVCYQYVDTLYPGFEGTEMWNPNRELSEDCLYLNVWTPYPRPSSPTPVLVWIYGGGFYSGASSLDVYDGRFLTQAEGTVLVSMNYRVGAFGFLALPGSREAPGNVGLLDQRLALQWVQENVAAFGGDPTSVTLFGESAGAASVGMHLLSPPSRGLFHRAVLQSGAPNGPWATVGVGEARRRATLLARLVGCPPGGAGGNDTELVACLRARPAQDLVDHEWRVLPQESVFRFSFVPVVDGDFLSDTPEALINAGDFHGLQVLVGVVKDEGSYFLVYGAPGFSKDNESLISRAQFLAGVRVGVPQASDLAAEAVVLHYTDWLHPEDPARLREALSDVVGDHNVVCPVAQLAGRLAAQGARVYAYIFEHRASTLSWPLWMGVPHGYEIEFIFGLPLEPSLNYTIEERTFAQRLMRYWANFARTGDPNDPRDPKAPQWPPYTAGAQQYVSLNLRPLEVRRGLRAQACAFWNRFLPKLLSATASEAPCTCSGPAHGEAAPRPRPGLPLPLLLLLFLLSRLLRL
Description: Acetylcholinesterase (AChE) Inhibition (from Bovine Erythrocytes)
AChE inhibitory activity was evaluated at 30° C. by the colorimetric method reported by Ellman [Ellman, G. L.; Courtney, K. D.; Andres, B.; Featherstone, R. M. Biochem. Pharmacol. 1961, 7, 88-95]. The assay solution consisted of 0.1 M phosphate buffer pH 8, 0.3 mM 5,5′-dithiobis (2-nitrobenzoic acid) (DTNB, Ellman's reagent), 0.02 units AChE (Sigma Chemical Co. from bovine erythrocytes), and 0.5 mM acetylthiocholine iodide as the substrate of the enzymatic reaction. The compounds tested were added to the assay solution and preincubated with the enzyme for 5 min at 30° C. After that period, the substrate was added. The absorbance changes at 405 nm were recorded for 5 min with a microplate reader Digiscan 340T, the reaction rates were compared, and the percent inhibition due to the presence of test compounds was calculated. The reaction rate was calculated with, at least, triplicate measurements, and the percent inhibition due to the presence of test compound was calculated relative to the compound-free control.

BuChE from human serum = biological target: T2, BuChE from human serum (Homo sapiens, UniProt P06276); test: Butyrylcholinesterase (BuChE) inhibition (from human serum); type: biochemical
T2 construct: The assay solution consisted of 0.01 units BuChE from human serum; from tissue; host or cells: human serum
T2 sequence (P06276 29-602): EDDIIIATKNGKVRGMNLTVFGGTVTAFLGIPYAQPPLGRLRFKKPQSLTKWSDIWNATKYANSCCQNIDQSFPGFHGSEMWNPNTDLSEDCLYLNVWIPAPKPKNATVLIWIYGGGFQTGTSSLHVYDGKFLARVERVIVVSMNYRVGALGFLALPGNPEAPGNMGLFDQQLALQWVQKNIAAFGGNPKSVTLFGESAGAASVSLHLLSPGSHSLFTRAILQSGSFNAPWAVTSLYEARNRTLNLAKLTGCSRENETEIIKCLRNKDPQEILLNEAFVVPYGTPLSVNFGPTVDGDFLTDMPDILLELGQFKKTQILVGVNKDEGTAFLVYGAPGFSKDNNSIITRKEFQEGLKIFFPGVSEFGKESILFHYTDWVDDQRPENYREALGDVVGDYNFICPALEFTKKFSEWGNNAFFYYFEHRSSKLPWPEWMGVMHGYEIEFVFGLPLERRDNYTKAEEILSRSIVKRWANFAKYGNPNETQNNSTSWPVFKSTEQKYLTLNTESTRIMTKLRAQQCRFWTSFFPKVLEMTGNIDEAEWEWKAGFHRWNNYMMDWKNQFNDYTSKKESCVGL
Description: Butyrylcholinetersae (BuChE) Inhibition (from Human Serum)
BuChE inhibitory activity was evaluated at 30° C. by the colorimetric method reported by Ellman (Ellman, G. L.; Courtney, K. D.; Andres, B.; Featherstone, R. M. Biochem. Pharmacol. 1961, 7, 88-95]. The assay solution consisted of 0.01 units BuChE from human serum, 0.1 M sodium phosphate buffer pH 8, 0.3 mM 5,5′-dithiobis (2-nitrobenzoic acid) (DTNB, Ellman's reagent), and 0.5 mM butylthiocholine iodide as the substrate of the enzymatic reaction. Enzyme activity was determined by measuring the absorbance at 405 nm during 5 minutes with a microplate reader Digiscan 340T. The tested compounds were preincubated with the enzyme for 10 minutes at 30° C. The reaction rate was calculated with, at least, triplicate measurements.

[2] = test system: human neuroblastoma cell line SH—SY5Y; test: Toxicity measurement (LDH) in SH-SY5Y cells; type: cell-based; details: 24 hours exposure
Description: The cytotoxicity effect of the molecules was tested in the human neuroblastoma cell line SH—SY5Y. These cells were cultured in 96-well plates in minimum essential medium, Han's F12 medium, supplemented with 10% fetal bovine serum, 1% glutamine and 1% penicillin/streptomycin, and grown in. a 5% CO2 humidified incubator at 37° C.
The cells were plated at 10^4 cells for each well, at least, 48 hours before the toxicity measure. Cells were exposed for 24 hours to the compounds at different concentrations (from 10^−5 to 10^−9), quantitative assessment of cell death was made by measurement of the intracellular enzyme lactate dehydrogenase (LDH) (citotoxicity detection kit, Roche). The cuantity of LDH was evaluated in a microplate reader Anthos 2010, at 492 and 620 nm. Controls were taken as 100% viability.

AChE peripheral site = AChE peripheral site (Homo sapiens, UniProt P22303); test: Propidium competition (fluorescence); type: binding; details: 20 μM propidium iodide, AChE incubated at least 6 hours with compound
Chain of AChE peripheral site (P22303 32-614): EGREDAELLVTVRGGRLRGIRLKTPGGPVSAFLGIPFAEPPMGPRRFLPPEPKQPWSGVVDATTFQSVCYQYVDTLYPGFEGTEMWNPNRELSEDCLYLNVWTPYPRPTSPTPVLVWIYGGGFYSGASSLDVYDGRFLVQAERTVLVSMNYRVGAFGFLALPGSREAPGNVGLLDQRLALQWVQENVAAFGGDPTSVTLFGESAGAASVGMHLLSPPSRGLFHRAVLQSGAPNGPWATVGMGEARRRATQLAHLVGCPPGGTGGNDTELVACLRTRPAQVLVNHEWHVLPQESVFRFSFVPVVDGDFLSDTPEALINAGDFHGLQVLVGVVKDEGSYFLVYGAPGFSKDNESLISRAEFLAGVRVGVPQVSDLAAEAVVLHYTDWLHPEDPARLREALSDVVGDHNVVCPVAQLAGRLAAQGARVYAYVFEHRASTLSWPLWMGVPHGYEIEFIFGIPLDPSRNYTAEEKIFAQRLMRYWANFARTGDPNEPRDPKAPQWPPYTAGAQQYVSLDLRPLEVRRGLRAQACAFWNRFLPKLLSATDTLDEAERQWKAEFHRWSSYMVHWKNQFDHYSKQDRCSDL
Description: Fluorescence was measured in a Fluostar optima plate reader (BMG). Measurements were carried out in 100 μl solution volume, in 96-well plates. The buffer used was 1 mM Tris/HCl, pH 8.0. […] AChE was incubated, at least 6 hours, with the molecules at different concentrations. 20 μM propidium iodide was added 10 min before fluorescence measurement.

[3] = biological target: T3, AChE from human erythrocytes (Homo sapiens, UniProt P22303); test: AChE inhibition (from human erythrocytes), Ellman method; type: biochemical; details: 10 min preincubation at 30° C., 400 μM acetylthiocholine iodide, pH 8
T3 construct: 0.02 unit/ml AChE (Sigma Chemical Co. from human erythrocytes); purchased Sigma Chemical Co; host or cells: human erythrocytes
T3 sequence (P22303 32-617 isoform P22303-2 limits assumed): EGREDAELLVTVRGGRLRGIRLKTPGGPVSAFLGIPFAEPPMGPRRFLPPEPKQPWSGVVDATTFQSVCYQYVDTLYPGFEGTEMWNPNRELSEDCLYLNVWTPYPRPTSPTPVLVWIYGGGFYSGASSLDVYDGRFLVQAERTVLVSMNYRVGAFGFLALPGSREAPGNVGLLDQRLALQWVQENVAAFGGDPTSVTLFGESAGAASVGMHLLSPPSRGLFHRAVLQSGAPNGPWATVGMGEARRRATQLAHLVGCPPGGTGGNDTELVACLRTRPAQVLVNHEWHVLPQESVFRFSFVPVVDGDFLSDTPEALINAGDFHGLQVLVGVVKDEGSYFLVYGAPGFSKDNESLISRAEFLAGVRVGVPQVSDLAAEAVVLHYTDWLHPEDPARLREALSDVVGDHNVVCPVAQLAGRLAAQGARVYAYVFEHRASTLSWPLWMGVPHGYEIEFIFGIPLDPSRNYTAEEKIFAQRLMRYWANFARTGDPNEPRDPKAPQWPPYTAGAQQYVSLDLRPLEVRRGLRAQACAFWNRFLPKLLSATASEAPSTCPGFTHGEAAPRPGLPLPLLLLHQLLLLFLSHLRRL
Description: AChE Inhibition (from Human Erythrocytes)
The method of Ellman et al. (Ellman, G. L.; Courtney, K. D.; Andres, B.; Featherstone, R. M. Biochem. Pharmacol. 1961, 7, 88-95) was followed. The assay solution consisted of 0.1 M phosphate buffer pH 8, 200 μM 5,5′-dithiobis(2-nitrobenzoic acid) (DTNB, Ellan's reagent), 0.02 unit/ml AChE (Sigma Chemical Co. from human erythrocytes), and 400 μM acetylthiocholine iodide as the substrate of the enzymatic reaction. The compounds tested were added to the assay solution and pre incubated with the enzyme for 10 min at 30° C. After that period, the substrate was added. The absorbance changes at 412 nm were recorded for 5 min with a Perkin-Elmer 550 SE UV/VIS spectrometer, the reaction rates were compared, and the percent inhibition due to the presence of test compounds was calculated.

[4] = test system: SH—SY5Y cells exposed to β-amyloid fragment 25-35; test: Effects on β-amyloid toxicity (fragment 25-35, LDH viability); type: cell-based, human; details: 1 hour pretreatment, Aβ 25-35 at 200 μM, 24 hours
Description: Effects on β-Amiloid Toxicity
We have tested if some of these molecules interfere with amyloid peptide toxicity. Cells SH—SY5Y were cultured in 96-well plates as toxicity experiments. Cells were pretreated for 1 hour with the compounds at different concentrations (from 10^−5 to 10^−9), immediately neuronal death is induced adding synthetic peptide β-amyloid, fragment 25-35 (A25-35) at 200 μM. 24 hours later cell viability was assessed with the LDH assay; results are reported relative to untreated wells.

β-amyloid-AChE complex = biological target: T4, β-amyloid-AChE complex (Homo sapiens, UniProt P22303); test: Inhibition of β-amyloid aggregation (AChE-Aβ complex, Congo Red binding); type: biochemical; details: propidium iodide 50 μM, Aβ1-40 0.1 mM, Aβ-AChE 200:1, 48 hours
T4 construct: purchased Sigma-Aldrich
T4 sequence (P22303 32-614, one chain of several): as the sequence (P22303 32-614) above
Description: Inhibition of β-Amyloid Aggregation:
Stock solutions of Aβ1-40 at 3.5 mM were prepared in DMSO. The amount of peptide used in the assays was 0.1 mM. Human recombinant AChE (Sigma-Aldrich) was used at a molar ratio Aβ-AChE 200:1. For the aggregation studies the peptide was mixed with the appropriate amount of AChE in PBS pH 7.4 and stirred for 48 hours in -a microtiter plate at room temperature. The fibrils obtained were characterized by Congo Red (CR) binding.
For the inhibition of β-amyloid aggregation, the compounds tested were used at the IC50 defined in the previous paragraph of the biological evaluation. Propidium iodide 50 μM for comparison.

[5] = bovine erythrocytes AChE, 30° C., 5 min preincubation, read-out: IC50 AchE
[6] = human serum BuChE, 30° C., 10 min preincubation, read-out: IC50 BuChE

Structure (SMILES) | IC50 [1, 5] [nM] | IC50 (BuChE from human serum; [6]) [nM] | Toxicity [2] [µM] | Propidium competition (AChE peripheral site) [µM] | IC50 [3] [nM] | inhibition of Aβ(25-35) toxicity [4] [µM] | IC50 [1] [nM] | IC50 (BuChE from human serum) [nM] | reduction of the β-amyloid-AChE complex aggregation (β-amyloid-AChE complex) [%]
O=C(CN1C(=O)c2ccccc2C1=O)NCCCCCCCNc1c2c(nc3cc(Cl)ccc13)CCCC2 [Compound 10, N-[7-(6-Chloro-1,2,3,4-tetrahydro-acridin-9-ylamino)-heptyl]-2-(1,3-dioxo-1,3-dihydro-isoindol-2-yl)-acetamide] | 20 | 650 | >100 | 10 |  |  |  |  | 
COc1cc2c(cc1OC)C(=O)C(CNCCCCCCNc1c3c(nc4ccccc14)CCCC3)C2 (stereo not shown) [Compound 2, 5,6-Dimethoxy-2-{[6-(1,2,3,4-tetrahydro-acridin-9-ylamino)-hexylamino]-methyl}-indan-1-one] |  |  |  |  | 100 |  |  |  | 
CCn1c(=NCCCCCCCCNc2c3c(nc4ccccc24)CCCC3)sn(C(C)C)c1=O [Compound 17, 4-Ethyl-2-isopropyl-5-[8-(1,2,3,4-tetrahydro-acridin-9-ylamino)-octylimino]-[1,2,4]thiadiazolidin-3-one] | 200 | 10 | >100 | 0.1 |  |  |  |  | 
Clc1ccc2c(NCCCCCCCNc3c4ccccc4nc4ccccc34)c3c(nc2c1)CCCC3 [Compound 23, N-Acridin-9-yl-N′-(6-chloro-1,2,3,4-tetrahydro-acridin-9-yl)-heptane-1,7-diamine] | 0.4 | 20 | 0.5 | 1 |  | 1 |  |  | 
CN(CCCNC(=O)CN1C(=O)c2ccccc2C1=O)CCCNc1c2c(nc3cc(Cl)ccc13)CCCC2 [Compound 11, N-(3-{[3-(6-Chloro-1,2,3,4-tetrahydro-acridin-9-ylamino)-propyl]-methyl-amino}-propyl)-2-(1,3-dioxo-1,3-dihydro-isoindol-2-yl)-acetamide] | 3 | 75 | >100 | 10 |  |  |  |  | 
CCn1c(=NCCCCCCNc2c3c(nc4ccccc24)CCCC3)sn(C(C)C)c1=O [Compound 18, 4-Ethyl-2-isopropyl-5-[6-(1,2,3,4-tetrahydro-acridin-9-ylamino)-hexyl-imino]-[1,2,4]thiadiazolidin-3-one] |  |  | >10 | >100 |  |  | 2250 | 1000 | 
O=C1c2ccccc2C(=O)N1CCCCCCCCNc1c2ccccc2nc2ccccc12 [Compound 8, 2-[8-(Acridin-9-ylamino)-octyl]-isoindole-1,3-dione] | 1000 | 1000 | 100 | >100 |  |  |  |  | 
O=C1c2ccccc2C(=O)N1CCCCCCCCNc1c2c(nc3ccccc13)CCCC2 [Compound 5, 2-[8-(1,2,3,4-Tetrahydro-acridin-9-ylamino)-octyl]-isoindole-1,3-dione] | 90 | 30 | 5 | >100 |  |  |  |  | 
O=C(CN1C(=O)c2ccccc2C1=O)NCCCCCCNc1c2c(nc3cc(Cl)ccc13)CCCC2 [Compound 12, N-[6-(6-Chloro-1,2,3,4-tetrahydro-acridin-9-ylamino)-hexyl]-2-(1,3-dioxo-1,3-dihydro-isoindol-2-yl)-acetamide] | 10 | 200 | >100 | 100 |  |  |  |  | 
CC[N+](C)(CC)CCC[n+]1c(-c2ccccc2)c2cc(N)ccc2c2ccc(N)cc21 [propidium, Propidium iodide, reference compound] |  |  |  |  |  |  |  |  | 18.1
O=C1c2ccccc2C(=O)N1CCCCCCNc1c2ccccc2nc2ccccc12 [Compound 6, 2-[6-(Acridin-9-ylamino)-hexyl]-isoindole-1,3-dione] | 900 | 8 | >100 | 10 |  |  |  |  | 
O=C1c2ccccc2C(=O)N1CCCCCCCCCNc1c2ccccc2nc2ccccc12 [Compound 9, 2-[9-(Acridin-9-ylamino)-nonyl]-isoindole-1,3-dione] | 2 | 90 | >100 | 1 |  |  |  |  | 
O=C1c2ccccc2C(=O)N1CCCCCCCNc1c2c(nc3ccccc13)CCCC2 [Compound 4, 2-[7-(1,2,3,4-Tetrahydro-acridin-9-ylamino)-heptyl]-isoindole-1,3-dione] | 3000 | 10 | >100 | 10 |  |  |  |  | 
CN(CCCNc1c2c(nc3cc(Cl)ccc13)CCCC2)CCCNc1c2c(nc3cc(Cl)ccc13)CCCC2 [Compound 19] | 0.1 | 1.5 | 10 | 10 |  |  |  |  | 
Clc1ccc2c(NCCCCCCCCNc3c4ccccc4nc4ccccc34)c3c(nc2c1)CCCC3 [Compound 24, N-Acridin-9-yl-N′-(6-chloro-1,2,3,4-tetrahydro-acridin-9-yl)-octane-1,8-diamine] | 1 | 35 | 5 | 10 |  |  |  |  | 
